Holding throughout (test): relative viability (nuclei count vs DMSO), 5 days (fraction); higher = more cells survive
Compound in the experiment “Ruxolitinib + Trametinib”: N#CC[C@H](C1CCCC1)n1cc(-c2ncnc3[nH]ccc23)cn1 [Ruxolitinib] + CC(=O)Nc1cccc(-n2c(=O)n(C3CC3)c(=O)c3c(Nc4ccc(I)cc4F)n(C)c(=O)c(C)c32)c1 [Trametinib] (partner 0.02 µM)
The method, boiled down:
(§1)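 A single step with final 0.05% Triton X-100, 1% formaldehyde and 1 ug/ml Hoechst fixed the cells and stained nuclei 5 days after treatment. Lung cancer cell lines in 1536-well plates had been treated by pin tool the day after seeding with one drug alone or a fixed anchor-drug dose plus five library-drug doses (not always all listed) in √10 steps, and nuclei were counted on 4× images. Relative viability is the ratio of nuclei in treated wells to nuclei in vehicle wells, taken as the median of duplicate plates.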

Compound in the experiment “VE-821 + Tozasertib”: CS(=O)(=O)c1ccc(-c2cnc(N)c(C(=O)Nc3ccccc3)n2)cc1 [VE-821] + Cc1cc(Nc2cc(N3CCN(C)CC3)nc(Sc3ccc(NC(=O)C4CC4)cc3)n2)n[nH]1 [Tozasertib] (partner 0.1 µM)
The method, boiled down:
as §1

Compound in the experiment “Vismodegib + Navitoclax”: CS(=O)(=O)c1ccc(C(=O)Nc2ccc(Cl)c(-c3ccccn3)c2)c(Cl)c1 [Vismodegib] + CC1(C)CCC(c2ccc(Cl)cc2)=C(CN2CCN(c3ccc(C(=O)NS(=O)(=O)c4ccc(N[C@H](CCN5CCOCC5)CSc5ccccc5)c(S(=O)(=O)C(F)(F)F)c4)cc3)CC2)C1 [Navitoclax] (partner 0.5 µM)
The method, boiled down:
as §1

Compound in the experiment “Ruxolitinib + Lapatinib”: N#CC[C@H](C1CCCC1)n1cc(-c2ncnc3[nH]ccc23)cn1 [Ruxolitinib] + CS(=O)(=O)CCNCc1ccc(-c2ccc3ncnc(Nc4ccc(OCc5cccc(F)c5)c(Cl)c4)c3c2)o1 [Lapatinib] (partner 2 µM)
Summed up: as §1

Regarding UMC-11, the relative viability amounted to 0.823 with Ruxolitinib + Trametinib (first compound 0.08 µM); 0.703 with Ruxolitinib + Trametinib (first compound 0.253 µM); 0.872 in the experiment with Ruxolitinib + Trametinib (first compound 0.8 µM); 1.03 with Ruxolitinib + Trametinib (first compound 2.53 µM); 0.653 in the experiment with Ruxolitinib + Trametinib (first compound 8 µM); 0.203 with VE-821 + Tozasertib (first compound 0.08 µM). Besides, the relative viability was 0.195 with VE-821 + Tozasertib (first compound 0.253 µM); 0.223 in the experiment with VE-821 + Tozasertib (first compound 0.8 µM); 0.2 in the experiment with VE-821 + Tozasertib (first compound 2.53 µM); 0.203 with VE-821 + Tozasertib (first compound 8 µM); 0.321 in the experiment with Vismodegib + Navitoclax (first compound 0.08 µM); 0.313 with Vismodegib + Navitoclax (first compound 0.253 µM). Moreover, the relative viability in the experiment with Vismodegib + Navitoclax (first compound 0.8 µM) stood at 0.296; with Vismodegib + Navitoclax (first compound 2.53 µM), 0.29; with Vismodegib + Navitoclax (first compound 8 µM) it was 0.305; with Ruxolitinib + Lapatinib (first compound 0.08 µM), 1.01; with Ruxolitinib + Lapatinib (first compound 0.253 µM), 0.934; with Ruxolitinib + Lapatinib (first compound 0.8 µM), 1.23. The relative viability is 0.998 in the experiment with Ruxolitinib + Lapatinib (first compound 2.53 µM) and 1.02 with Ruxolitinib + Lapatinib (first compound 8 µM).

For the origin of these results see the supplement of paper PMC10307832.
